What was measured:
HepG2 cells = experiment: Cell proliferation assay (CellTiter-Glo) in HepG2 cells; format: cell-based, human; details: NTF3 20 ng/ml, HepG2 (FIG. 8G-H)
Method: Cell lines. Human HepG2 (ATCC HB-8065) were maintained in MEM media with 10% FBS and the mouse hepatocyte cell line AML12 (ATCC, Manassas, VA; CRL-2254) in DMEM/F12 media supplemented with dexamethasone (40 ng/ml) and Insulin-Transferrin-Selenium (Gibco, Waltham, MA; 41400045), containing 10% FBS and 1% penicillin and streptomycin. JS1 (RRID: CVCL_C7PL), LX2 (RRID: CVCL_5792, MilliporeSigma, Burlington, MA; SCC064) and TWNT4 (RRID: CVCL_W296) cells were cultured in DMEM supplemented with 10% FBS. 293T cells (ATCC, Manassas, VA; CRL-3216) were cultured in DMEM supplemented with 10% FBS.
Cell proliferation assays. Primary mouse hepatocytes, HepG2 or AML 12 cells were grown in opaque-walled 96-well plates. NTF3 (final concentration 20 ng/ml) (STEMCELL Technologies, Vancouver, Canada; cat. 78074) and/or Loxo-195 (final concentration 5 nM) (Selleckchem, Houston, TX; S8636) were added into complete growth media without L-glutamine. Primary mouse hepatocytes were also grown in serum-free William's E media without supplements. Cells were analyzed by CellTiter-Glo® (Promega G7570, Madison, WI) which detects the number of viable cells on day 0 to day 5 by on detection systems GloMax® (Promega) or Bioteck Synergy H1 (Agilent, Santa Clara, CA). Mouse recombinant HGF (Abcam, Cambridge, UK; ab281797) was added to cell culture media at a final concentration 5 ng/ml. […]

mTORC1 = experiment: Immunoblotting of HDOs for P-S6RP and P-P70S6K (mTORC1 activation); format: cell-based, human; details: HDO, serum free and glutamine free William's E medium (FIG. 20A-C)
Method: Human ductal organoids. The normal human liver tissue was obtained through the Cooperative Human Tissue Network (CHTN) at Vanderbilt University Medical Center. The liver was cut into very small pieces in liver digestion medium (Gibco, Waltham, MA; 17703-034). The cell suspension was filtered through a 100-μm cell strainer. The flow through was then centrifuged for 2 min at 100 g, 4° C., and the cell pellet resuspended in ice-cold DMEM (Gibco, Waltham, MA; 11885-084, supplemented by 5% FBS) and centrifuged for 2 min at 300 g. The cell pellet was gently resuspended in Matrigel® (Corning, Corning, NY; 356231) and a […] dome plated in a 24-well plate. The plate was incubated for 10-15 min at 37° C. After solidifying, complete HepatiCult™ Organoid Initiation Medium (OIM) (STEMCELL Technologies, Vancouver, Canada; 100-0384) was added. For passaging, the Matrigel dome was dissociated using TrypLE (Thermo Fisher Scientific, Waltham, MA; 12604013) and incubated at 37° C. for 5 mins. Organoids were washed by resuspending in advanced DMEM/F12 and consecutive resuspension of the organoid pellet. Organoids were resuspended at a 1:10 dilution in Matrigel® and cultured in complete HepatiCult™ Organoid Growth Medium (OGM) (STEMCELL Technologies, Vancouver, Canada; 100-0385) for organoid expansion. For hepatocytic differentiation of hepatic ductal organoids, culture medium was changed to complete HepatiCult™ Organoid Differentiation Medium (ODM) (STEMCELL Technologies, 100-0383) 4 days after passaging. Vehicle, NTF3, BDNF, HGF (20 ng/ml final concentration) or Taletrectinib (Fisher Scientific, Waltham, MA; 502030245, final concentration 10 nM) or torin2 (Fisher Scientific, Waltham, MA; s2817, final concentration 25 nM) were diluted in William's E (without L-glutamine) and added to organoids.
Immunoblotting. HDOs and mpPHH were homogenized in RIPA buffer containing proteinase inhibitors (Roche, Basel, Switzerland; cOmplete™ Mini protease inhibitor, 2 tab/10 ml buffer) and 1×HALT phosphatase inhibitors (Thermo Fisher Scientific, Waltham, MA; catalog no. 78428). Lysates were sonicated and then centrifuged for 10 min at 18,800 g. Protein concentration of supernatants was determined by Direct Detect Spectrophotometer (MilliporeSigma, Burlington, MA). HDOs were treated with growth factors as described above. Lyophilized NTF3 was solubilized with sterile-filtered PBS supplemented with 0.1% BSA, aliquoted, and stored at −80° C. until use. […] HDOs and mpPHH were collected on ice in PBS and centrifuged for 10 s, and the cell pellet was homogenized in RIPA buffer containing inhibitors (Roche, Basel, Switzerland; cOmplete™ Mini protease inhibitor, 1×HALT phosphatase inhibitors, Thermo Fisher Scientific, Waltham, MA; catalog no. 78428). Cell lysates were sonicated and centrifuged for 10 min at 18,800 g. The protein concentration of supernatants was determined by a Direct Detect® spectrophotometer (MilliporeSigma, Burlington, MA). For immunoblot analysis, 10 to 50 μg of protein diluted in […] sample buffer (Invitrogen, Waltham, MA) were analyzed per SDS-polyacrylamide gel electrophoresis (NuPAGE™, Invitrogen, Waltham, MA) using Mops buffer or MES buffer (Invitrogen, Waltham, MA). […] Semi-quantitative band densitometry was performed using ImageJ software (version 1.53).

phosphorylation of P-p70S6 kinase and P-S6 ribosomal protein (S6RP) (mTORC1): significantly increased phosphorylation
Substance: NTF3: neurotrophin-3, recombinant protein; HSC-derived hepatocyte mitogen, ligand of TRKA, TRKB, TRKC
cell proliferation (HepG2 cells): greatly stimulated cell proliferation

From patent US20250346643A1, “TROPOMYOSIN KINASE RECEPTOR (TRK) LIGANDS AS THERAPEUTICS TO SUPPORT LIVER REGENERATION” (Vanderbilt University, priority 2024, published 2025)
